From patent US9896441B2 (Lycera Corporation, priority 2014, dated 2018)

target: T1, RORγ-LBD (Homo sapiens, UniProt P51449); assay: RORγ-Ligand Binding Domain (LBD) TR-FRET Assay; format: biochemical; settings: RORγ-LBD TR-FRET;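 on TR-FRET Assay Max Response: 665/615 nm signal ratio set to 100 without ursolic acid or test compound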
T1 construct: made in house; host or cells: SF9 cells (baculovirus); used as diluted lysate
T1 sequence (P51449 269-508 limits assumed): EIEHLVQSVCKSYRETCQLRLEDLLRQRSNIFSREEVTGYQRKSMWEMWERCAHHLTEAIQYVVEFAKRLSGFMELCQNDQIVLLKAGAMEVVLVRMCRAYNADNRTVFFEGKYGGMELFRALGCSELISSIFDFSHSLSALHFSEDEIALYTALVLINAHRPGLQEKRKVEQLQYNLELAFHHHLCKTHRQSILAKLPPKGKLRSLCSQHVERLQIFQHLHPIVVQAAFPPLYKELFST
Experimental: Assay procedures and results are described below.
HIS-tagged RORγ-LBD protein was expressed in SF9 cells using a baculovirus expression system. The lysate was diluted in assay buffer (50 mM Tris pH 7.0, 50 mM KCl, 1 mM EDTA, 0.1 mM DTT, 0.01% BSA) to obtain RORγ-LBD final concentration of ˜3 nM in a 384-well assay plate (need to titrate for each batch of protein).
A stock of biotinylated-LXXLL peptide from coactivator SRC1 (Biotin-[…]) was prepared in assay buffer and added to each well (200 nM final concentration). […] RORγ antagonist ursolic acid was also included at a final concentration of 2 μM. Compounds were diluted in DMSO and further diluted in assay buffer with a final DMSO concentration at 1%.

Row | Compound | EC50
1 | CCOC(=O)C1Cc2ccc(OCc3c(F)cccc3Cl)cc2N(S(=O)(=O)c2cn(CC)nc2Cl)C1 (stereo not shown) [Example 9E, ethyl 1-((3-chloro-1-ethyl-1H-pyrazol-4-yl)sulfonyl)-7-((2-chloro-6-fluorobenzyl)oxy)-1,2,3,4-tetrahydroquinoline-3-carboxylate] | < 500 nM
2 | COc1cc(S(=O)(=O)N2CCCc3ccc(O[C@H]4CCc5ccccc54)cc32)ccc1F [Example 25A, (S)-7-((2,3-dihydro-1H-inden-1-yl)oxy)-1-((4-fluoro-3-methoxyphenyl)sulfonyl)-1,2,3,4-tetrahydroquinoline] | < 500 nM
3 | COC(=O)CC[C@H]1CN(S(=O)(=O)c2cc(C(F)(F)F)cnc2OC(C)C)c2cc(/C=C/c3c(F)cccc3Cl)ccc2O1 [Example 89FL, methyl (S,E)-3-(6-(2-chloro-6-fluorostyryl)-4-((2-isopropoxy-5-(trifluoromethyl)pyridin-3-yl)sulfonyl)-3,4-dihydro-2H-benzo[b][1,4]oxazin-2-yl)propanoate] | 500 to 5000 nM
4 | COc1cc(S(=O)(=O)N2CCCc3ccc(OCc4c(Cl)cccc4C4CC4)cc32)ccc1F [Example 25S, 7-((2-chloro-6-cyclopropylbenzyl)oxy)-1-((4-fluoro-3-methoxyphenyl)sulfonyl)-1,2,3,4-tetrahydroquinoline] | < 500 nM
5 | O=S(=O)(c1cccc(C(F)(F)F)c1)N1CCCc2cc(OCc3ccccc3)ccc21 [Example 25K, 6-(benzyloxy)-1-((3-(trifluoromethyl)phenyl)sulfonyl)-1,2,3,4-tetrahydroquinoline] | < 500 nM
6 | O=S(=O)(c1cccc(C(F)(F)F)c1)N1CCCc2cc(OC3CCCCC3)ccc21 [Example 25L, 6-(cyclohexyloxy)-1-((3-(trifluoromethyl)phenyl)sulfonyl)-1,2,3,4-tetrahydroquinoline] | < 500 nM
7 | COC(=O)CC[C@H]1CN(S(=O)(=O)c2cccc(C(F)(F)F)c2)c2cc(/C=C/c3c(C)noc3C)ccc2O1 [Example 89BS, (S,E)-methyl 3-(6-(2-(3,5-dimethylisoxazol-4-yl)vinyl)-4-((3-(trifluoromethyl)phenyl)-sulfonyl)-3,4-dihydro-2H-benzo[b][1,4]-oxazin-2-yl)propanoate] | < 500 nM
8 | COc1cc(S(=O)(=O)N2CCCc3ccc(OCc4c(F)cccc4Cl)cc32)ccc1F [Example 24, 7-((2-Chloro-6-fluorobenzyl)oxy)-1-((4-fluoro-3-methoxyphenyl)sulfonyl)-1,2,3,4-tetrahydroquinoline] | < 500 nM
9 | O=S(=O)(c1cccc(C(F)(F)F)c1)N1CCCc2cc(OCC3CCCCC3)ccc21 [Example 25M, 6-(cyclohexylmethoxy)-1-((3-(trifluoromethyl)phenyl)sulfonyl)-1,2,3,4-tetrahydroquinoline] | < 500 nM
10 | Cc1nn(C(F)F)cc1S(=O)(=O)N1CC(CO)Cc2ccc(OCc3c(F)cccc3Cl)cc21 (stereo not shown) [Example 9D] | < 500 nM
11 | O=C(O)CC[C@H]1CN(S(=O)(=O)c2cccc(C(F)(F)F)c2)c2cc(/C=C/c3ccnn4cccc34)ccc2O1 [Example 89BM, (S,E)-3-(6-(2-(pynolo[1,2-b]pyridazin-4-yl)vinyl)-4-((3-(trifluoromethyl)phenyl)sulfonyl)-3,4-dihydro-2H-benzo[b][1,4]oxazin-2-yl)propanoic acid] | 500 to 5000 nM
12 | O=C(O)CC[C@H]1CN(S(=O)(=O)c2cccc(C(F)(F)F)c2)c2cc(/C=C/c3c(Cl)cc(Cl)cc3Cl)ccc2O1 [Example 89CL, (S,E)-3-(6-(2,4,6-trichlorostyryl)-4-((3-(trifluoromethyl)-phenyl)sulfonyl)-3,4-dihydro-2H-benzo[b][1,4]oxazin-2-yl)propanoic acid] | 500 to 5000 nM
13 | O=S(=O)(c1cccc(C(F)(F)F)c1)N1CCCc2cc(C3CC3)c(OCc3c(F)cccc3C3CC3)cc21 [Example 28C] | < 500 nM
14 | O=C(O)CC[C@H]1CN(S(=O)(=O)c2cccc(C(F)(F)F)c2)c2cc(/C=C/c3c(Cl)cc(OC(F)(F)F)cc3Cl)ccc2O1 [Example 89CN, (S,E)-3-(6-(2,6-dichloro-4-(trifluoromethoxy)styryl)-4-((3-(trifluoromethyl)phenyl)sulfonyl)-3,4-dihydro-2H-benzo[b][1,4]-oxazin-2-yl)propanoic acid] | 500 to 5000 nM
15 | CCOc1nn(CC)cc1S(=O)(=O)N1C[C@H](CNC(C)=O)Oc2ccc(NCc3c(F)cccc3Cl)cc21 [Example 28G] | < 500 nM
16 | O=S(=O)(c1cccc(C(F)(F)F)c1)N1CCCc2cc(C3CC3)c(OCc3c(F)cccc3Cl)cc21 [Example 28B] | < 500 nM
17 | O=C(O)CC[C@H]1CN(S(=O)(=O)c2cccc(OC(F)F)c2)c2cc(/C=C/c3nccnc3Cl)ccc2O1 [Example 89DS, (S,E)-3-(6-(2-(3-chloropyrazin-2-yl)vinyl)-4-((3-(difluoromethoxy)phenyl)sulfonyl)-3,4-dihydro-2H-benzo[b][1,4]-oxazin-2-yl)propanoic acid] | > 10000 nM

same assay, conditions: RORγ-LBD TR-FRET assay

Row | Compound | EC50
18 | CCOC(=O)C(C)(C)CC1CC(S(=O)(=O)c2ccc(F)c(OC)c2)c2cc(OCc3c(F)cccc3Cl)ccc2O1 (stereo not shown) [Example 185, Ethyl 3-(6-((2-chloro-6-fluorobenzyl)oxy)-4-((4-fluoro-3-methoxyphenyl)sulfonyl)chroman-2-yl)-2,2-dimethylpropanoate] | < 500 nM
19 | COc1cc(S(=O)(=O)N2c3cc(OCc4c(F)cccc4Cl)ccc3C[C@@H](CO)[C@H]2C)ccc1F [Example 151, ((2R,3R)-7-((2-Chloro-6-fluorobenzyl)oxy)-1-((4-fluoro-3-methoxyphenyl)sulfonyl)-2-methyl-1,2,3,4-tetrahydroquinolin-3-yl)methanol] | < 500 nM
20 | Cc1noc(C)c1NC(=O)N[C@@H]1Cc2ccc(/C=C/c3c(F)cccc3C(F)(F)F)cc2N(S(=O)(=O)c2cccc(C(F)(F)F)c2)[C@@H]1C [Example 116L, 1-(3,5-dimethylisoxazol-4-yl)-3-((2R,3R)-7-((E)-2-fluoro-6-(trifluoromethyl)styryl)-2-methyl-1-((3-(trifluoro-methyl)phenyl)sulfonyl)-1,2,3,4-tetrahydroquinolin-3-yl)urea] | < 500 nM
21 | CNC(=O)N[C@@H]1Cc2ccc(/C=C(\C)c3c(F)cccc3Cl)cc2N(S(=O)(=O)c2cccc(C(F)(F)F)c2)[C@@H]1C [Example 145, 1-((2R,3R)-7-((E)-2-(2-Chloro-6-fluorophenyl)prop-1-en-1-yl)-2-methyl-1-((3-(trifluoromethyl)phenyl)sulfonyl)-1,2,3,4-tetrahydroquinolin-3-yl)-3-methylurea] | < 500 nM
22 | CCOC(=O)C(C)(C)CC1C[C@H](S(=O)(=O)c2cccc(C(F)(F)F)c2)c2cc(/C=C(\C)c3c(F)cccc3Cl)ccc2O1 (stereo in doubt) [Example 186L, ethyl 3-((2S,4S)-6-((E)-2-(2-chloro-6-fluorophenyl)prop-1-en-1-yl)-4-((3-(trifluoromethyl)phenyl)-sulfonyl)chroman-2-yl)-2,2-dimethylpropanoate] | < 500 nM
23 | C/C(=C\c1ccc2c(c1)CC(CC(=O)O)CN2S(=O)(=O)c1cccc(C(F)(F)F)c1)c1c(F)cccc1Cl (stereo not shown) [Example 150, (E)-2-(6-(2-(2-Chloro-6-fluorophenyl)prop-1-en-1-yl)-1-((3-(trifluoromethyl)phenyl)sulfonyl)-1,2,3,4-tetrahydroquinolin-3-yl)acetic acid] | > 10000 nM

same assay, conditions: RORγ-LBD TR-FRET assay, maximum response

Row | Compound | TR-FRET Assay Max Response
24 | CCOC(=O)C(C)(C)CC1CC(S(=O)(=O)c2ccc(F)c(OC)c2)c2cc(OCc3c(F)cccc3Cl)ccc2O1 (stereo not shown) [Example 185, Ethyl 3-(6-((2-chloro-6-fluorobenzyl)oxy)-4-((4-fluoro-3-methoxyphenyl)sulfonyl)chroman-2-yl)-2,2-dimethylpropanoate] | ** (a value in the range of greater than 90 to 150)
25 | COc1cc(S(=O)(=O)N2c3cc(OCc4c(F)cccc4Cl)ccc3C[C@@H](CO)[C@H]2C)ccc1F [Example 151, ((2R,3R)-7-((2-Chloro-6-fluorobenzyl)oxy)-1-((4-fluoro-3-methoxyphenyl)sulfonyl)-2-methyl-1,2,3,4-tetrahydroquinolin-3-yl)methanol] | ** (a value in the range of greater than 90 to 150)
26 | Cc1noc(C)c1NC(=O)N[C@@H]1Cc2ccc(/C=C/c3c(F)cccc3C(F)(F)F)cc2N(S(=O)(=O)c2cccc(C(F)(F)F)c2)[C@@H]1C [Example 116L, 1-(3,5-dimethylisoxazol-4-yl)-3-((2R,3R)-7-((E)-2-fluoro-6-(trifluoromethyl)styryl)-2-methyl-1-((3-(trifluoro-methyl)phenyl)sulfonyl)-1,2,3,4-tetrahydroquinolin-3-yl)urea] | *** (a value in the range of greater than 150 to 200)
27 | CNC(=O)N[C@@H]1Cc2ccc(/C=C(\C)c3c(F)cccc3Cl)cc2N(S(=O)(=O)c2cccc(C(F)(F)F)c2)[C@@H]1C [Example 145, 1-((2R,3R)-7-((E)-2-(2-Chloro-6-fluorophenyl)prop-1-en-1-yl)-2-methyl-1-((3-(trifluoromethyl)phenyl)sulfonyl)-1,2,3,4-tetrahydroquinolin-3-yl)-3-methylurea] | ** (a value in the range of greater than 90 to 150)
28 | CCOC(=O)C(C)(C)CC1C[C@H](S(=O)(=O)c2cccc(C(F)(F)F)c2)c2cc(/C=C(\C)c3c(F)cccc3Cl)ccc2O1 (stereo in doubt) [Example 186L, ethyl 3-((2S,4S)-6-((E)-2-(2-chloro-6-fluorophenyl)prop-1-en-1-yl)-4-((3-(trifluoromethyl)phenyl)-sulfonyl)chroman-2-yl)-2,2-dimethylpropanoate] | *** (a value in the range of greater than 150 to 200)

same assay, conditions: with 2 μM ursolic acid (RORγ antagonist); highest test concentration 10 μM

Row | Compound | EC50
29 | Cc1nn(C(F)F)cc1S(=O)(=O)N1CC(C(=O)O)Cc2ccc(OCc3c(F)cccc3Cl)cc21 (stereo not shown) | 500 to 5000 nM
30 | CCOc1nn(CC)cc1S(=O)(=O)N1CC(CO)Cc2ccc(OCc3c(F)cccc3Cl)cc21 (stereo not shown) | < 500 nM
31 | O=C(O)C1Cc2ccc(OCc3ccc(C(F)(F)F)c(F)c3)cc2N(S(=O)(=O)c2cccc(C(F)(F)F)c2)C1 (stereo not shown) | 5000 to 10000 nM
32 | COc1cc(S(=O)(=O)N2CC(C(=O)O)Cc3ccc(OCc4c(F)cccc4Cl)cc32)ccc1F (stereo not shown) | < 500 nM
33 | C/C(=C\c1ccc2c(c1)N(S(=O)(=O)c1cccc(C(F)(F)F)c1)C[C@H](CCCC(=O)O)O2)c1c(F)cccc1Cl [Example 195G, (S,E)-4-(6-(2-(2-chloro-6-fluorophenyl)prop-1-en-1-yl)-4-((3-(trifluoromethyl)phenyl)-sulfonyl)-3,4-dihydro-2H-benzo[b][1,4]oxazin-2-yl)butanoic acid] | < 500 nM
34 | O=C(O)C1Cc2ccc(OCc3ccc4ccccc4c3)cc2N(S(=O)(=O)c2cccc(C(F)(F)F)c2)C1 (stereo not shown) | > 10000 nM
35 | CCOC(=O)C1Cc2ccc(OCc3c(F)cccc3Cl)cc2N(S(=O)(=O)c2cn(CC)nc2Cl)C1 (stereo not shown) [drawing 1599] | < 500 nM
36 | CCn1cc(S(=O)(=O)N2C[C@H](CNC(C)=O)Nc3ccc(NCc4c(F)cccc4Cl)cc32)c(Cl)n1 | < 500 nM
37 | C/C(=C\c1ccc2c(c1)N(S(=O)(=O)c1cc(C3CC3)cnc1OCCO)C[C@H](CCC(=O)O)O2)c1c(F)cccc1Cl [Example 86BC, (S,E)-3-(6-(2-(2-chloro-6-fluorophenyl)prop-1-en-1-yl)-4-((5-cyclopropyl-2-(2-hydroxyethoxy)pyridin-3-yl)sulfonyl)-3,4-dihydro-2H-benzo[b][1,4]oxazin-2-yl)propanoic acid] | < 500 nM
